Reference: PMC6986724, “Crystal structure of PMGL2 esterase from the hormone-sensitive lipase family with GCSAG motif around the catalytic serine” (PLoS ONE, 2020)

Molecular target: T1, PMGL2 (uncultured bacterium, UniProt Z9SFY5SHV8, S173T/C202S, form not given)
T1 construct: recombinant, cloned into pET32a, poly-His tag; homodimer; GCSAG motif 172-176, catalytic Ser174, Asp272, His302; 319 residues visible in the mutant crystal
T1 sequence (Z9SFY5SHV8 1-343 S173T/C202S): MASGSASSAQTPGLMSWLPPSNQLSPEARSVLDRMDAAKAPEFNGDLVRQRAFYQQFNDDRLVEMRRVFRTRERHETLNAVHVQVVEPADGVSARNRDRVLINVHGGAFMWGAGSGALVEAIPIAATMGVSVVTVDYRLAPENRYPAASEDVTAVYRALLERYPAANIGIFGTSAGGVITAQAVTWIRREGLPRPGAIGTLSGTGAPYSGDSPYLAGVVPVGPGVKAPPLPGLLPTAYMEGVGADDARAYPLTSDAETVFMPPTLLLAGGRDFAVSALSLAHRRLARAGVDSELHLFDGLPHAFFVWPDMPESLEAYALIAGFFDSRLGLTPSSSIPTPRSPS
Experiment: esterase kinetics
Format: biochemical
Conditions: 25 °C

## CCCC(=O)Oc1ccc([N+](=O)[O-])cc1 [p-nitrophenyl butyrate]
  Km: 450 µM
